Measurements as given in PubChem BioAssay (NCI).
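Interpolation was linear, between the two tested concentrations surrounding the appropriate level; five concentrations were tested over 48 hours in 96-well plates. At the GI50, growth is halved. TGI is the concentration that stops growth completely.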

These molecules were tested on EKVX NSCLC (assay: inhibition of tumour cell growth, NCI panel, 48 h).

Structure (SMILES) | TGI [µM] | GI50 [µM]
COC(=O)/C=C\S/C(=C(/c1ccccc1)n1ccc(C(=O)OC)n1)c1ccccc1 | > 100 | –
COc1ccc(/C=N/Nc2nc3ccccc3c(=O)n2-c2ccccc2)c(OCc2ccccc2)c1 | > 100 | –
CNC(=O)c1cc(Oc2ccc(NC(=O)Nc3ccc(Cl)c(OC(F)(F)F)c3)c(F)c2)ccn1 | 23.6 | 1.55
NC(N)=N/N=C/c1c(-c2ccccn2)nc2sc(Cl)cn12 | 16.1 | 8.95

What follows are molecules tested on K-562 leukemia (assay: inhibition of tumour cell growth, NCI panel, 48 h).

Structure (SMILES) | GI50 [µM] | TGI [µM]
Cc1ccc(-c2nc(C(Cl)Cl)n3nc(-c4ccccc4)cc3n2)cc1 | 1.07 | > 100
COC(=O)/C=C\S/C(=C(/c1ccccc1)n1ccc(C(=O)OC)n1)c1ccccc1 | – | > 100
COc1ccc(/C=N/Nc2nc3ccccc3c(=O)n2-c2ccccc2)c(OCc2ccccc2)c1 | – | > 100
CNC(=O)c1cc(Oc2ccc(NC(=O)Nc3ccc(Cl)c(OC(F)(F)F)c3)c(F)c2)ccn1 | 1.22 | 8.22
NC(N)=N/N=C/c1c(-c2ccccn2)nc2sc(Cl)cn12 | 3.4 | 13.8

Each molecule was assayed on CCRF-CEM leukemia (assay: inhibition of tumour cell growth, NCI panel, 48 h).

Structure (SMILES) | GI50 [µM] | TGI [µM]
Cc1ccc(-c2nc(C(Cl)Cl)n3nc(-c4ccccc4)cc3n2)cc1 | > 100 | > 100
COc1ccc(/C=N/Nc2nc3ccccc3c(=O)n2-c2ccccc2)c(OCc2ccccc2)c1 | – | > 100
CNC(=O)c1cc(Oc2ccc(NC(=O)Nc3ccc(Cl)c(OC(F)(F)F)c3)c(F)c2)ccn1 | 1.94 | > 33.2

The molecules below were run on NCI-H460 lung (assay: inhibition of tumour cell growth, NCI panel, 48 h).

Structure (SMILES) | GI50 [µM] | TGI [µM]
Cc1ccc(-c2nc(C(Cl)Cl)n3nc(-c4ccccc4)cc3n2)cc1 | 0.273 | 1.05
COC(=O)/C=C\S/C(=C(/c1ccccc1)n1ccc(C(=O)OC)n1)c1ccccc1 | – | > 100
COc1ccc(/C=N/Nc2nc3ccccc3c(=O)n2-c2ccccc2)c(OCc2ccccc2)c1 | – | > 100
CNC(=O)c1cc(Oc2ccc(NC(=O)Nc3ccc(Cl)c(OC(F)(F)F)c3)c(F)c2)ccn1 | 2.22 | 17.6
NC(N)=N/N=C/c1c(-c2ccccn2)nc2sc(Cl)cn12 | 10.2 | 50

These molecules were tested on SR leukemia (assay: inhibition of tumour cell growth, NCI panel, 48 h).

Structure (SMILES) | TGI [µM] | GI50 [µM]
COC(=O)/C=C\S/C(=C(/c1ccccc1)n1ccc(C(=O)OC)n1)c1ccccc1 | > 100 | –
COc1ccc(/C=N/Nc2nc3ccccc3c(=O)n2-c2ccccc2)c(OCc2ccccc2)c1 | > 100 | –
CNC(=O)c1cc(Oc2ccc(NC(=O)Nc3ccc(Cl)c(OC(F)(F)F)c3)c(F)c2)ccn1 | 7.99 | 1.49
NC(N)=N/N=C/c1c(-c2ccccn2)nc2sc(Cl)cn12 | 3.05 | 0.845

What follows are molecules tested on HOP-62 NSCLC (assay: inhibition of tumour cell growth, NCI panel, 48 h).

Structure (SMILES) | GI50 [µM] | TGI [µM]
Cc1ccc(-c2nc(C(Cl)Cl)n3nc(-c4ccccc4)cc3n2)cc1 | 0.566 | 3.15
COC(=O)/C=C\S/C(=C(/c1ccccc1)n1ccc(C(=O)OC)n1)c1ccccc1 | – | 50.4
COc1ccc(/C=N/Nc2nc3ccccc3c(=O)n2-c2ccccc2)c(OCc2ccccc2)c1 | – | > 100
CNC(=O)c1cc(Oc2ccc(NC(=O)Nc3ccc(Cl)c(OC(F)(F)F)c3)c(F)c2)ccn1 | 2.49 | 29.3
NC(N)=N/N=C/c1c(-c2ccccn2)nc2sc(Cl)cn12 | 9.58 | 17.5

These molecules were tested on UACC-62 melanoma (assay: inhibition of tumour cell growth, NCI panel, 48 h).

Structure (SMILES) | TGI [µM] | GI50 [µM]
COC(=O)/C=C\S/C(=C(/c1ccccc1)n1ccc(C(=O)OC)n1)c1ccccc1 | 10.3 | –
COc1ccc(/C=N/Nc2nc3ccccc3c(=O)n2-c2ccccc2)c(OCc2ccccc2)c1 | > 100 | –
CNC(=O)c1cc(Oc2ccc(NC(=O)Nc3ccc(Cl)c(OC(F)(F)F)c3)c(F)c2)ccn1 | 10 | 1.34
NC(N)=N/N=C/c1c(-c2ccccn2)nc2sc(Cl)cn12 | 14.9 | 8.01

The molecules below were run on A549 NSCLC (assay: inhibition of tumour cell growth, NCI panel, 48 h).

Structure (SMILES) | TGI [µM] | GI50 [µM]
COC(=O)/C=C\S/C(=C(/c1ccccc1)n1ccc(C(=O)OC)n1)c1ccccc1 | > 100 | –
COc1ccc(/C=N/Nc2nc3ccccc3c(=O)n2-c2ccccc2)c(OCc2ccccc2)c1 | > 100 | –
CNC(=O)c1cc(Oc2ccc(NC(=O)Nc3ccc(Cl)c(OC(F)(F)F)c3)c(F)c2)ccn1 | > 33.2 | 2.03
NC(N)=N/N=C/c1c(-c2ccccn2)nc2sc(Cl)cn12 | 14 | 6.87

The molecules below were run on HT29 colon (assay: inhibition of tumour cell growth, NCI panel, 48 h).

Structure (SMILES) | GI50 [µM] | TGI [µM]
Cc1ccc(-c2nc(C(Cl)Cl)n3nc(-c4ccccc4)cc3n2)cc1 | 1.1 | > 56.2
COC(=O)/C=C\S/C(=C(/c1ccccc1)n1ccc(C(=O)OC)n1)c1ccccc1 | – | > 100
COc1ccc(/C=N/Nc2nc3ccccc3c(=O)n2-c2ccccc2)c(OCc2ccccc2)c1 | – | > 100
CNC(=O)c1cc(Oc2ccc(NC(=O)Nc3ccc(Cl)c(OC(F)(F)F)c3)c(F)c2)ccn1 | 1.17 | 13.5

These molecules were tested on ACHN renal (assay: inhibition of tumour cell growth, NCI panel, 48 h).

Structure (SMILES) | GI50 [µM] | TGI [µM]
Cc1ccc(-c2nc(C(Cl)Cl)n3nc(-c4ccccc4)cc3n2)cc1 | 0.302 | 0.93
COC(=O)/C=C\S/C(=C(/c1ccccc1)n1ccc(C(=O)OC)n1)c1ccccc1 | – | 20.1
COc1ccc(/C=N/Nc2nc3ccccc3c(=O)n2-c2ccccc2)c(OCc2ccccc2)c1 | – | > 100
CNC(=O)c1cc(Oc2ccc(NC(=O)Nc3ccc(Cl)c(OC(F)(F)F)c3)c(F)c2)ccn1 | 1.33 | > 33.2
NC(N)=N/N=C/c1c(-c2ccccn2)nc2sc(Cl)cn12 | 7.49 | 15.3

Each molecule was assayed on MDA-MB-231 breast (assay: inhibition of tumour cell growth, NCI panel, 48 h).

Structure (SMILES) | GI50 [µM] | TGI [µM]
Cc1ccc(-c2nc(C(Cl)Cl)n3nc(-c4ccccc4)cc3n2)cc1 | 0.21 | 0.678
COC(=O)/C=C\S/C(=C(/c1ccccc1)n1ccc(C(=O)OC)n1)c1ccccc1 | – | 70.9
COc1ccc(/C=N/Nc2nc3ccccc3c(=O)n2-c2ccccc2)c(OCc2ccccc2)c1 | – | > 100
CNC(=O)c1cc(Oc2ccc(NC(=O)Nc3ccc(Cl)c(OC(F)(F)F)c3)c(F)c2)ccn1 | 1.26 | 8.74
NC(N)=N/N=C/c1c(-c2ccccn2)nc2sc(Cl)cn12 | 5.64 | 11.7

The molecules below were run on TK-10 renal (assay: inhibition of tumour cell growth, NCI panel, 48 h).

Structure (SMILES) | TGI [µM] | GI50 [µM]
COC(=O)/C=C\S/C(=C(/c1ccccc1)n1ccc(C(=O)OC)n1)c1ccccc1 | > 100 | –
COc1ccc(/C=N/Nc2nc3ccccc3c(=O)n2-c2ccccc2)c(OCc2ccccc2)c1 | > 100 | –
CNC(=O)c1cc(Oc2ccc(NC(=O)Nc3ccc(Cl)c(OC(F)(F)F)c3)c(F)c2)ccn1 | > 33.2 | 2.44
NC(N)=N/N=C/c1c(-c2ccccn2)nc2sc(Cl)cn12 | 15.1 | 8.13

These molecules were tested on HL-60(TB) leukemia (assay: inhibition of tumour cell growth, NCI panel, 48 h).

Structure (SMILES) | TGI [µM] | GI50 [µM]
COC(=O)/C=C\S/C(=C(/c1ccccc1)n1ccc(C(=O)OC)n1)c1ccccc1 | > 100 | –
COc1ccc(/C=N/Nc2nc3ccccc3c(=O)n2-c2ccccc2)c(OCc2ccccc2)c1 | > 100 | –
CNC(=O)c1cc(Oc2ccc(NC(=O)Nc3ccc(Cl)c(OC(F)(F)F)c3)c(F)c2)ccn1 | 6.53 | 1
NC(N)=N/N=C/c1c(-c2ccccn2)nc2sc(Cl)cn12 | 25.8 | 11

The molecules below were run on MDA-MB-435 (assay: inhibition of tumour cell growth, NCI panel, 48 h).

Structure (SMILES) | TGI [µM] | GI50 [µM]
COC(=O)/C=C\S/C(=C(/c1ccccc1)n1ccc(C(=O)OC)n1)c1ccccc1 | > 100 | –
COc1ccc(/C=N/Nc2nc3ccccc3c(=O)n2-c2ccccc2)c(OCc2ccccc2)c1 | > 100 | –
CNC(=O)c1cc(Oc2ccc(NC(=O)Nc3ccc(Cl)c(OC(F)(F)F)c3)c(F)c2)ccn1 | 10.9 | 1.29
NC(N)=N/N=C/c1c(-c2ccccn2)nc2sc(Cl)cn12 | 14.2 | 7.56

The molecules below were run on SK-MEL-2 melanoma (assay: inhibition of tumour cell growth, NCI panel, 48 h).

Structure (SMILES) | TGI [µM] | GI50 [µM]
COC(=O)/C=C\S/C(=C(/c1ccccc1)n1ccc(C(=O)OC)n1)c1ccccc1 | 59.5 | –
COc1ccc(/C=N/Nc2nc3ccccc3c(=O)n2-c2ccccc2)c(OCc2ccccc2)c1 | > 100 | –
CNC(=O)c1cc(Oc2ccc(NC(=O)Nc3ccc(Cl)c(OC(F)(F)F)c3)c(F)c2)ccn1 | 5.86 | 1.03
